The values that follow come from PMC10376691, “Inhibition of Acetylcholinesterase and Amyloid-β Aggregation by Piceatannol and Analogs: Assessing In Vitro and In Vivo Impact on a Murine Model of Scopolamine-Induced Memory Impairment” (Antioxidants, 2023).

Entries after “also recorded” stand apart in the source; their conditions may differ.

The target of test [1] is T1, Aβ peptide (1–42) (Homo sapiens, UniProt P05067).
T1 construct: The Aβ peptide (1–42) was synthesized and purchased from Kelowna International Scientific Inc; purchased Kelowna International Scientific Inc. (New Taipei, Taiwan); host or cells: chemical synthesis
The experiment in a line: biochemical. The method, then: To prepare the 10 μM Aβ peptide working solution, commercial Aβ peptide was first weighted and dissolved in HFIP to 1 mM. Next, the solvent was evaporated in a hood and then re-dissolved using 100 μL of 60 mM NaOH. It was then diluted to 10 μM working solutions with 50 mM phosphate buffer (pH 7.4, containing 150 mM sodium chloride and 1 mM EDTA), following previous reports. […] DMSO instead of the sample solution was used as the control. The 50 mM phosphate buffer was used instead of the Aβ working solution as the sample blank. […] The IC50 of the inhibition against the Aβ aggregation of PIC and its analogs was calculated from each linear equation using three test concentrations and their inhibition capacities.

For test [2], the target named is T2, mouse AChE activity in the brain extracts (Mus musculus, UniProt P21836).
T2 construct: The protein content of the whole brain extracts from the mice was quantified using the BCA protein kit; from tissue; host or cells: whole brain extract of scopolamine-induced ICR mice
T2 sequence (P21836 32-614): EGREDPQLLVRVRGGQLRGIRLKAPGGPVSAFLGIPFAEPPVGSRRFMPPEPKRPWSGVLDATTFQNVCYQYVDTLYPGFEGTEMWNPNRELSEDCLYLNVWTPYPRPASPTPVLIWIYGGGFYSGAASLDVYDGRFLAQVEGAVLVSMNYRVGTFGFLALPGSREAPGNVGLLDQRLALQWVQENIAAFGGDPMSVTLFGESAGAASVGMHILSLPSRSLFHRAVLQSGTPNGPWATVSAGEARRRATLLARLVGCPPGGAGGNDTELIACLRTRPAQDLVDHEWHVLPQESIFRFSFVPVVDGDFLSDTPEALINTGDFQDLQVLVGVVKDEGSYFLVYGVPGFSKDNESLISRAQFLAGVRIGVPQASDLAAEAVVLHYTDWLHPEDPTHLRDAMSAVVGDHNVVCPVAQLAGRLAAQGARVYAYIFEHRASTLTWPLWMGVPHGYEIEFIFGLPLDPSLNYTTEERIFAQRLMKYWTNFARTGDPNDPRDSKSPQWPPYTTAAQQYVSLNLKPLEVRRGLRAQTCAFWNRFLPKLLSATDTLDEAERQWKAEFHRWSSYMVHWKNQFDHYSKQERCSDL
The experiment in a line: AChE activity in brain extracts of scopolamine-induced ICR mice. It is filed as in vivo. Conditions: PIC 50 mg/kg, donepezil 5 mg/kg oral; vs control p < 0.05.
Procedure: The AChE activities in the mouse brain tissue extract were assayed following the method in Section 2.3, with some modifications. The protein content of the whole brain extracts from the mice was quantified using the BCA protein kit, with bovine serum albumin as the standard protein.

For test [3], the system named is scopolamine-induced amnesiac ICR mice. Nature of the test: Passive avoidance test in scopolamine-induced amnesiac ICR mice. Type of test: in vivo, mouse. Particulars: PIC 50 mg/kg oral once a day, donepezil 5 mg/kg oral, scopolamine 1 mg/kg i.p. From the text:
The scopolamine-induced cognitive dysfunctions of amnesiac ICR mice were used to evaluate the effects of PIC pre-treatments on the improvement of learning and memory functions, following previous reports. The animal experimental protocols were reviewed and approved by the Institutional Animal Care and Use Committee, Taipei Medical University (No. LAC-2021-0488). After a two-week acclimation, the mice were randomly divided into four groups (N = 5 for each group). In the first stage, the mice in the PIC group were orally pre-treated with PIC (50 mg/kg) using a feeding tube, once a day from day 1 to day 7; the mice in the blank, control, and donepezil groups were treated with the same volume of distilled water from day 1 to day 7. In the second stage, on day 8 and day 9, the mice in the PIC group and the donepezil group were orally treated once with PIC (50 mg/kg) and donepezil (positive control, 5 mg/kg), respectively, using a feeding tube; the mice in the blank and the control groups were treated with the same volume of distilled water. After 30 min, each mouse was injected intraperitoneally with scopolamine (1 mg/kg, dissolved in PBS), and the mice in the blank group were each injected with an equal volume of PBS instead of the scopolamine solution. Again, 30 min after the scopolamine or PBS injection, a learning and memory evaluation was performed on each mouse with the use of a 2-day passive avoidance test. All the mice were sacrificed at the end of the animal experiments, and the brain tissues of the mice in each group were isolated, weighted, and stored at −80 °C for further use.
A 2-day passive avoidance test, which included an acquisition trial on the first day and a retention trial on the second day, was used to evaluate the learning and memory functions of the scopolamine-induced cognitive dysfunctions of amnesiac ICR mice after PIC and donepezil treatments, following previous reports. A shuttle chamber (AccuScan Instruments Inc., Columbus, OH, USA) with a light box and a dark box separated by a sliding door was used. On day 8, after acclimation around the shuttle chamber for 30 min, each scopolamine-injected or PBS-injected mouse was placed in the light box for the acquisition trial. Once the mouse entered the dark box, the step-through latency (s) was recorded, and the sliding door was closed at the same time. Immediately after, the mouse was administered an electric foot shock (0.3 mA for 3 s) via the wired metal floor and then sent back to the cage. […] The step-through latency (period of time that each mouse stayed in the light box) was recorded again. […] The protein content of the whole brain extracts from the mice was quantified using the BCA protein kit, with bovine serum albumin as the standard protein. […]

T1 sequence (P05067 672-713): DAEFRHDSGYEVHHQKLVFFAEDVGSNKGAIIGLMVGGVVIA

As a reminder, the IC50 is the concentration that gives 50% inhibition. In the case of `Oc1cc(O)cc(C=Cc2ccc(O)c(O)c2)c1` [PIC, 3,5,3′,4′-tetrahydroxystilbene], the IC50 in test [1] was 480 nM. Further, in test [1] (vs RSV), the “anti-Aβ aggregation capacity, fold higher than that of RSV” value is listed as 2.94 fold. The “AChE activity in the brain extracts” value in test [2] is “reductions in AChE activities”. The “step-through latency, acquisition trial (first day)” value in test [3] is “no significant difference among the groups”. Also, the “step-through latency, retention trial (second day)” value in test [3] (vs control p < 0.05) is recorded as “improved learning behavior; also recorded: longer staying time”.
